# In ChEMBL document CHEMBL1201862, “PubChem BioAssay data set” (2004):
#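 Values below derive from 48-hour exposures of cells grown in 96-well plates, with endpoints linearly interpolated between the two concentrations bracketing the appropriate inhibition level. At the GI50, growth is halved.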 Activity calls are given as the source filed them. No stated cut-off is given here; in the data, active = GI50 up to about 1.1 µM and inactive = higher.
# Key:
# Assay in all cases: growth of human tumour cells (NCI), 48 h
# MCF7 = test system: MCF7
# A549 = test system: A549
# SF-295 = test system: SF-295
# RXF 393 = test system: RXF 393
# UACC-62 = test system: UACC-62
# HOP-62 = test system: HOP-62
# SN12C = test system: SN12C
# SK-MEL-5 = test system: SK-MEL-5
# OVCAR-8 = test system: OVCAR-8
# MDA-N = test system: MDA-N
# SK-MEL-28 = test system: SK-MEL-28
# 786-0 = test system: 786-0
# SK-MEL-2 = test system: SK-MEL-2
# SF-268 = test system: SF-268
# SNB-19 = test system: SNB-19
# HCC 2998 = test system: HCC 2998
# SNB-75 = test system: SNB-75
# UACC-257 = test system: UACC-257
# EKVX = test system: EKVX
SMILES,GI50 (MCF7),GI50 (A549),GI50 (SF-295),GI50 (RXF 393),GI50 (UACC-62),GI50 (HOP-62),GI50 (SN12C),GI50 (SK-MEL-5),GI50 (OVCAR-8),GI50 (MDA-N),GI50 (SK-MEL-28),GI50 (786-0),GI50 (SK-MEL-2),GI50 (SF-268),GI50 (SNB-19),GI50 (HCC 2998),GI50 (SNB-75),GI50 (UACC-257),GI50 (EKVX)
CNC(=O)CNC(=O)CCC(=O)OC,> 100 µM (inactive),> 100 µM (inactive),> 100 µM (inactive),> 100 µM (inactive),> 100 µM (inactive),> 100 µM (inactive),> 100 µM (inactive),> 100 µM (inactive),> 100 µM (inactive),> 100 µM (inactive),> 100 µM (inactive),> 100 µM (inactive),> 100 µM (inactive),> 100 µM (inactive),> 100 µM (inactive),,,,
CC(=O)Oc1cc(C(F)(F)F)ccc1C(=O)OC1(C)OC(=O)c2ccc(C(F)(F)F)cc2O1 (stereo unspecified),> 100 µM (inactive),> 100 µM (inactive),> 100 µM (inactive),> 100 µM (inactive),> 100 µM (inactive),> 100 µM (inactive),97.5 µM (inactive),,> 100 µM (inactive),> 100 µM (inactive),> 100 µM (inactive),> 100 µM (inactive),,> 100 µM (inactive),> 100 µM (inactive),> 100 µM (inactive),9.86 µM (inactive),> 100 µM (inactive),> 100 µM (inactive)
NCC#CCNCCCN1CC1,> 100 µM (inactive),> 100 µM (inactive),> 100 µM (inactive),,> 100 µM (inactive),> 100 µM (inactive),> 100 µM (inactive),> 100 µM (inactive),> 100 µM (inactive),> 100 µM (inactive),> 100 µM (inactive),> 100 µM (inactive),> 100 µM (inactive),> 100 µM (inactive),> 100 µM (inactive),> 100 µM (inactive),< 0.01 µM (active),> 100 µM (inactive),> 100 µM (inactive)
CCOc1cc(C2CC(c3ccc(NS(=O)(=O)c4cc([N+](=O)[O-])ccc4C)cc3)=NN2c2ccc([N+](=O)[O-])cc2[N+](=O)[O-])ccc1O (stereo unspecified),7.46 µM (inactive),6.55 µM (inactive),12.1 µM (inactive),7.11 µM (inactive),,10.7 µM (inactive),3.15 µM (inactive),10.4 µM (inactive),5.22 µM (inactive),12.2 µM (inactive),8 µM (inactive),2.58 µM (inactive),19.5 µM (inactive),11.1 µM (inactive),7.46 µM (inactive),,5.82 µM (inactive),19.1 µM (inactive),4.71 µM (inactive)
CC1(C)OCC(C(O)C2OC(C)(C)OC2C=O)O1 (stereo unspecified),> 100 µM (inactive),> 100 µM (inactive),> 100 µM (inactive),,> 100 µM (inactive),> 100 µM (inactive),> 100 µM (inactive),> 100 µM (inactive),> 100 µM (inactive),> 100 µM (inactive),> 100 µM (inactive),> 100 µM (inactive),> 100 µM (inactive),> 100 µM (inactive),> 100 µM (inactive),,> 100 µM (inactive),> 100 µM (inactive),> 100 µM (inactive)
O=C1c2cccnc2S(=O)(=O)N1c1ccc([N+](=O)[O-])cc1,> 100 µM (inactive),> 100 µM (inactive),> 100 µM (inactive),,> 100 µM (inactive),> 100 µM (inactive),> 100 µM (inactive),> 100 µM (inactive),> 100 µM (inactive),> 100 µM (inactive),> 100 µM (inactive),> 100 µM (inactive),> 100 µM (inactive),> 100 µM (inactive),> 100 µM (inactive),> 100 µM (inactive),> 100 µM (inactive),> 100 µM (inactive),> 100 µM (inactive)
O=C1CC(Cl)c2c(Cl)sc(Cl)c21 (stereo unspecified),0.794 µM (active),3.56 µM (inactive),15.4 µM (inactive),,2.16 µM (inactive),6 µM (inactive),1.84 µM (inactive),13.2 µM (inactive),1.8 µM (inactive),2.32 µM (inactive),2.1 µM (inactive),1.47 µM (inactive),,1.79 µM (inactive),11.4 µM (inactive),2.36 µM (inactive),4.56 µM (inactive),2.96 µM (inactive),3.94 µM (inactive)
O=[N+]([O-])/C(C(Cl)=C(Cl)Cl)=C(\N1CCOCC1)n1nnc2ccccc21,19.7 µM (inactive),16.7 µM (inactive),17.7 µM (inactive),,23.3 µM (inactive),18.8 µM (inactive),19.3 µM (inactive),17.6 µM (inactive),,19.6 µM (inactive),22.5 µM (inactive),22 µM (inactive),22.2 µM (inactive),18.3 µM (inactive),14.3 µM (inactive),,17.5 µM (inactive),20.7 µM (inactive),17.9 µM (inactive)
CC1OC(NCCNCCNC2OC(C)C(O)C(O)C2O)C(O)C(O)C1O (stereo unspecified),> 100 µM (inactive),> 100 µM (inactive),> 100 µM (inactive),> 100 µM (inactive),> 100 µM (inactive),> 100 µM (inactive),> 100 µM (inactive),> 100 µM (inactive),> 100 µM (inactive),> 100 µM (inactive),> 100 µM (inactive),> 100 µM (inactive),> 100 µM (inactive),> 100 µM (inactive),> 100 µM (inactive),,> 100 µM (inactive),> 100 µM (inactive),> 100 µM (inactive)
COc1nc(N)c(C#N)c(C#N)c1C#N,> 10 µM (inactive),> 10 µM (inactive),> 10 µM (inactive),,,> 10 µM (inactive),> 10 µM (inactive),> 10 µM (inactive),> 10 µM (inactive),> 10 µM (inactive),> 10 µM (inactive),> 10 µM (inactive),,> 10 µM (inactive),> 10 µM (inactive),> 10 µM (inactive),> 10 µM (inactive),> 10 µM (inactive),
O=C(O)C1C2C=CC(O2)C1C(=O)Nc1ccccc1 (stereo unspecified),> 100 µM (inactive),> 100 µM (inactive),> 100 µM (inactive),> 100 µM (inactive),> 100 µM (inactive),> 100 µM (inactive),> 100 µM (inactive),> 100 µM (inactive),> 100 µM (inactive),> 100 µM (inactive),> 100 µM (inactive),> 100 µM (inactive),> 100 µM (inactive),> 100 µM (inactive),> 100 µM (inactive),,> 100 µM (inactive),> 100 µM (inactive),> 100 µM (inactive)
Cc1ccc(C2(O)CS/C(=N\C34CC5CC(CC(C5)C3)C4)N2C(P(=O)(O)O)P(=O)(O)O)cc1 (stereo unspecified),65.2 µM (inactive),76.7 µM (inactive),44.4 µM (inactive),,,49.1 µM (inactive),89.3 µM (inactive),,86.7 µM (inactive),42 µM (inactive),> 100 µM (inactive),> 100 µM (inactive),27.5 µM (inactive),> 100 µM (inactive),82.2 µM (inactive),68.1 µM (inactive),38.6 µM (inactive),,> 100 µM (inactive)
